# Test results published in ChEMBL document CHEMBL4376865, “Discovery and Characterization of 1H-1,2,3-Triazole Derivatives as Novel Prostanoid EP4 Receptor Antagonists for Cancer Immunotherapy” (J Med Chem, 2020).
# Assays:
# [1] = target: CYP2E1 (Homo sapiens, UniProt P05181); experiment: Inhibition of CYP2E1 in human liver microsomes at 20 uM using chlorzoxazone as substrate incubated for 60 mins by HPLC analysis relative to control; assay type: ADME; conditions: probe chlorzoxazone
# [2] = Half life in BALB/c mouse at 1 mg/kg, iv measured upto 24 hrs by LC-MS/MS analysis; conditions: in vivo
# [3] = target: T1, CYP1A2 (Homo sapiens, UniProt P05177); experiment: Inhibition of CYP1A2 in human liver microsomes at 20 uM using phenacetin as substrate incubated for 30 mins by HPLC analysis relative to control; assay type: ADME; conditions: probe phenacetin
# T1 sequence (P05177 whole entry): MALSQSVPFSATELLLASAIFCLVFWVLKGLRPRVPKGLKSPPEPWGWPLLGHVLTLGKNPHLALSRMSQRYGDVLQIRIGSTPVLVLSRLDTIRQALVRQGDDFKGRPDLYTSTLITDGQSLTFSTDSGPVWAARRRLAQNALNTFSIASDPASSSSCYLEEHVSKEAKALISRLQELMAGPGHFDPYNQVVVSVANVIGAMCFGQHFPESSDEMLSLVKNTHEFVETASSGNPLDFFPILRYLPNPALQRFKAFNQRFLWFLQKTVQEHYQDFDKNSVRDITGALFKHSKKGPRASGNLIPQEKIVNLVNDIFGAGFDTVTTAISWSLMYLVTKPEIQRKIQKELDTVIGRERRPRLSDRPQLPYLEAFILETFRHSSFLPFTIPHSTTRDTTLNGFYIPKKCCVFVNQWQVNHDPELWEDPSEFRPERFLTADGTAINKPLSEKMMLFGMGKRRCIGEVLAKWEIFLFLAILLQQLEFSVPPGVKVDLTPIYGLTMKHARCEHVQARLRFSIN
# [4] = in vivo; conditions: BALB/c, mouse, po, 5 mg/kg
# Description: Oral bioavailability in BALB/c mouse at 5 mg/kg measured upto 24 hrs by LC-MS/MS analysis
# [5] = in vivo; conditions: BALB/c, mouse, po, 5 mg/kg; remark: listed apart in the source
# Description: Cmax in BALB/c mouse at 5 mg/kg, po measured upto 24 hrs by LC-MS/MS analysis
# [6] = in vitro; conditions: CD1, mouse, liver microsomes
# [7] = in vivo; conditions: BALB/c, mouse, po, 5 mg/kg; remark: listed apart in the source
# Description: AUC (0 to infinity) in BALB/c mouse at 5 mg/kg, po measured upto 24 hrs by LC-MS/MS analysis
# [8] = in vivo; conditions: BALB/c, mouse, iv, 1 mg/kg
# [9] = Metabolic stability in CD1 mouse liver microsomes assessed as compound remaining at 10 uM incubated for 1 hr
# [10] = target: T2, Prostaglandin E2 receptor EP1 subtype (Homo sapiens, UniProt P34995); experiment: Antagonist activity at human EP1 expressed in CHO cells coexpressing G16-alpha assessed as intracellular calcium flux preincubated for 15 mins followed by addition of PGE2 by calcium flux assay; assay type: functional, cell-based
# T2 sequence (P34995 whole entry): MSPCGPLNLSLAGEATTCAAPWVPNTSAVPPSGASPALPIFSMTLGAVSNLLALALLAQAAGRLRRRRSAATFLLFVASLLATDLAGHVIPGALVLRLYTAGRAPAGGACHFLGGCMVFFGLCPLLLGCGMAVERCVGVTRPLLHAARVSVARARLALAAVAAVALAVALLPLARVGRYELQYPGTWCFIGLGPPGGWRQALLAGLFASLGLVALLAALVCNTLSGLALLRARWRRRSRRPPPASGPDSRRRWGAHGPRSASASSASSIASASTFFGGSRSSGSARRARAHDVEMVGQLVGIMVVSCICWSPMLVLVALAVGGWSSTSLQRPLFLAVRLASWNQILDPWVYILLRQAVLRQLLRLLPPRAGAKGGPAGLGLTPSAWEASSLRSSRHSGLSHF
# [11] = Clearance in BALB/c mouse at 1 mg/kg, iv measured upto 24 hrs by LC-MS/MS analysis; conditions: in vivo
# [12] = target: Prostaglandin E2 receptor EP2 subtype (Homo sapiens, UniProt P43116)
# Description: Antagonist activity at human EP2 expressed in CHO cells coexpressing G16-alpha assessed as intracellular calcium flux preincubated for 15 mins followed by addition of PGE2 by calcium flux assay
# [13] = target: Cytochrome P450 3A4 (Homo sapiens, UniProt P08684); experiment: Inhibition of CYP3A4 in human liver microsomes at 20 uM using testosterone as substrate incubated for 60 mins by HPLC analysis; assay type: ADME; conditions: 1 h
# [14] = Volume of distribution at steady state in BALB/c mouse at 1 mg/kg, iv measured upto 24 hrs by LC-MS/MS analysis; conditions: in vivo
# [15] = target: CYP2C9 (Homo sapiens, UniProt P11712); experiment: Inhibition of CYP2C9 in human liver microsomes at 20 uM using tolbutamide as substrate incubated for 60 mins by HPLC analysis relative to control; assay type: ADME; conditions: probe tolbutamide
# [16] = target: Prostaglandin E2 receptor EP4 subtype (Mus musculus, UniProt P32240); experiment: Antagonist activity at mouse EP4 expressed in CHO cells coexpressing G16-alpha assessed as intracellular calcium flux preincubated for 15 mins followed by addition of PGE2 by calcium flux assay; assay type: functional, cell-based
# [17] = in vitro; conditions: human, liver microsomes
# [18] = in vivo; conditions: BALB/c, mouse, iv, 1 mg/kg; remark: listed apart in the source
# [19] = target: Prostaglandin E2 receptor EP4 subtype (Homo sapiens, UniProt P35408)
# Description: Antagonist activity at human EP4 expressed in CHO cells coexpressing G16-alpha assessed as intracellular calcium flux preincubated for 15 mins followed by addition of PGE2 by calcium flux assay
# [20] = Half life in BALB/c mouse at 5 mg/kg, po measured upto 24 hrs by LC-MS/MS analysis; conditions: in vivo
# [21] = target: CYP2D6 (Homo sapiens, UniProt P10635); experiment: Inhibition of CYP2D6 in human liver microsomes at 20 uM using dextromethorphan as substrate incubated for 60 mins by HPLC analysis relative to control; assay type: ADME; conditions: probe dextromethorphan
# [22] = target: T3, CYP2B6 (Homo sapiens, UniProt P20813); experiment: Inhibition of CYP2B6 in human liver microsomes at 20 uM incubated for 60 mins by HPLC analysis relative to control; assay type: ADME
# T3 sequence (P20813 whole entry): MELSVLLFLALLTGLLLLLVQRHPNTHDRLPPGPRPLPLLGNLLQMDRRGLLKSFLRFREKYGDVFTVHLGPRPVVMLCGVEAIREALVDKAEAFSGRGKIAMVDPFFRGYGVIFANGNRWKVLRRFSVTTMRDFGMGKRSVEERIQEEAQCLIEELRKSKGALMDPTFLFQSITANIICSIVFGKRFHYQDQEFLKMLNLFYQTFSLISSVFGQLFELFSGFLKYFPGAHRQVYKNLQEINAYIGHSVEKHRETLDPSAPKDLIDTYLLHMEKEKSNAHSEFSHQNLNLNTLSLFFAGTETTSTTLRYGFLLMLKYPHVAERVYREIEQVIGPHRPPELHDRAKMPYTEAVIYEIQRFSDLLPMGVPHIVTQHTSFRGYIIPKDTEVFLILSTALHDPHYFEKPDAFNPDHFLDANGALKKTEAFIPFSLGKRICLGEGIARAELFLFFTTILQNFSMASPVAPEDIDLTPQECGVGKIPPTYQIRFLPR
# [23] = target: T4, Prostaglandin E2 receptor EP3 subtype (Homo sapiens, UniProt P43115)
# T4 sequence (P43115 whole entry): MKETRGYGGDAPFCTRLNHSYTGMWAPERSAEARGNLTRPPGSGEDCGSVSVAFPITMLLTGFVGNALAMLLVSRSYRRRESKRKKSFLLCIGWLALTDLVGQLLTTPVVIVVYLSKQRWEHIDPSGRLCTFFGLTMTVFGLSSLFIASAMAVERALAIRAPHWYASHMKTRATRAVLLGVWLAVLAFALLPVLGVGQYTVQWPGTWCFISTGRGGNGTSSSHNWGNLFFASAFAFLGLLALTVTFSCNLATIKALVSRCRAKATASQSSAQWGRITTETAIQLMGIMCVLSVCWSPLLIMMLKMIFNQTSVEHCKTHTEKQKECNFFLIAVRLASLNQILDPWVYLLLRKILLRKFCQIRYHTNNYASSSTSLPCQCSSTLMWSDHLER
# Description: Antagonist activity at human EP3 expressed in CHO cells coexpressing G16-alpha assessed as intracellular calcium flux preincubated for 15 mins followed by addition of PGE2 by calcium flux assay
# [24] = Apparent volume of distribution in BALB/c mouse at 1 mg/kg, iv measured upto 24 hrs by LC-MS/MS analysis; conditions: in vivo
# [25] = in vitro; conditions: CD1, mouse, liver microsomes; remark: listed apart in the source
# [26] = in vitro; conditions: human, liver microsomes; remark: listed apart in the source
# [27] = Metabolic stability in human liver microsomes assessed as compound remaining at 10 uM incubated for 1 hr
# Sequence of Cytochrome P450 3A4 (P08684 whole entry): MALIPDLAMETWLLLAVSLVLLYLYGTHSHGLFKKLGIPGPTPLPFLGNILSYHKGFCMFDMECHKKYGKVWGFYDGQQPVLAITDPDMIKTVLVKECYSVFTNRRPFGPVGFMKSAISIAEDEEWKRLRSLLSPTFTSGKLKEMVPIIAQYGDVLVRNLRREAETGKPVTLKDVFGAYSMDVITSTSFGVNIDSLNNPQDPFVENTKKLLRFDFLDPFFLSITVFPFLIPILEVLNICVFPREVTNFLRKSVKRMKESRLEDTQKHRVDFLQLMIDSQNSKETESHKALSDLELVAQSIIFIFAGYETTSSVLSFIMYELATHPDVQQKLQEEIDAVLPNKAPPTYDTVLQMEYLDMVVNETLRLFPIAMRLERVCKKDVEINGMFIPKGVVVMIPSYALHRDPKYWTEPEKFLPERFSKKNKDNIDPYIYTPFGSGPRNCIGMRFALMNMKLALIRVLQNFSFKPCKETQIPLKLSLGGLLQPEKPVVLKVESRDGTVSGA
# Sequence of CYP2E1 (P05181 whole entry): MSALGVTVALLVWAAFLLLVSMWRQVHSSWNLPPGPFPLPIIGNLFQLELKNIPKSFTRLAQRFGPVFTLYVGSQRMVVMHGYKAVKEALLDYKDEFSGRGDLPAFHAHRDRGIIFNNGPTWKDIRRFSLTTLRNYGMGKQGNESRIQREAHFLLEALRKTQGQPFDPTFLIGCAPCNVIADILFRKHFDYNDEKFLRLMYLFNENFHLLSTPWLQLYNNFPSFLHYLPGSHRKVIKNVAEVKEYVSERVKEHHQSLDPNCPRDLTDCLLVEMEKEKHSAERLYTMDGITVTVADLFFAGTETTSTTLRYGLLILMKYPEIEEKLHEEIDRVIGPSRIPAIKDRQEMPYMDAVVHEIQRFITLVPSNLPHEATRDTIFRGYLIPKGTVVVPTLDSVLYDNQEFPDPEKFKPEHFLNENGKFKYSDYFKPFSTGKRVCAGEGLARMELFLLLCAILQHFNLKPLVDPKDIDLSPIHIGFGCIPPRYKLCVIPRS
# Sequence of Prostaglandin E2 receptor EP2 subtype (P43116 whole entry): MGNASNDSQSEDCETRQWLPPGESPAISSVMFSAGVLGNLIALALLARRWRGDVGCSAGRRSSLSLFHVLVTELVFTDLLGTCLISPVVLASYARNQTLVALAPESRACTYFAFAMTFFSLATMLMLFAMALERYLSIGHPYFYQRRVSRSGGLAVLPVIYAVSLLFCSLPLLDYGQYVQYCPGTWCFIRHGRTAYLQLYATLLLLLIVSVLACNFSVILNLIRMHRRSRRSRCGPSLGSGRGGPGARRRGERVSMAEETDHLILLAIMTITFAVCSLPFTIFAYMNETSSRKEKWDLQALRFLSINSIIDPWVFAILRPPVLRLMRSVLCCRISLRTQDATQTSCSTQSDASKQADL
# Sequence of Prostaglandin E2 receptor EP4 subtype (Mus musculus, UniProt P32240) (P32240 whole entry): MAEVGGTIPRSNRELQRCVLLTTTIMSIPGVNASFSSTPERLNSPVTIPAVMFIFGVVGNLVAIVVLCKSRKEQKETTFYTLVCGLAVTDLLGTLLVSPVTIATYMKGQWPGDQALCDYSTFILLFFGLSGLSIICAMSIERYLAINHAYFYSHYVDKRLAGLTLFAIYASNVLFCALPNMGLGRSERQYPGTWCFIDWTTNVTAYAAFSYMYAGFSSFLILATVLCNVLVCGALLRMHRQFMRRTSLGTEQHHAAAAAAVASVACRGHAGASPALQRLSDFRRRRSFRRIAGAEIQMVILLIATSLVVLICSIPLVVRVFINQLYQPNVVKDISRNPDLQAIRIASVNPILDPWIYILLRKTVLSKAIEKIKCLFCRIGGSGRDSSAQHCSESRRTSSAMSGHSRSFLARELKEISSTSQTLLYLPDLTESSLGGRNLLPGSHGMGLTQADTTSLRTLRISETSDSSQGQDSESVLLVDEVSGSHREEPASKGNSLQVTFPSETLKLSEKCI
# Sequence of Prostaglandin E2 receptor EP4 subtype (Homo sapiens, UniProt P35408) (P35408 whole entry): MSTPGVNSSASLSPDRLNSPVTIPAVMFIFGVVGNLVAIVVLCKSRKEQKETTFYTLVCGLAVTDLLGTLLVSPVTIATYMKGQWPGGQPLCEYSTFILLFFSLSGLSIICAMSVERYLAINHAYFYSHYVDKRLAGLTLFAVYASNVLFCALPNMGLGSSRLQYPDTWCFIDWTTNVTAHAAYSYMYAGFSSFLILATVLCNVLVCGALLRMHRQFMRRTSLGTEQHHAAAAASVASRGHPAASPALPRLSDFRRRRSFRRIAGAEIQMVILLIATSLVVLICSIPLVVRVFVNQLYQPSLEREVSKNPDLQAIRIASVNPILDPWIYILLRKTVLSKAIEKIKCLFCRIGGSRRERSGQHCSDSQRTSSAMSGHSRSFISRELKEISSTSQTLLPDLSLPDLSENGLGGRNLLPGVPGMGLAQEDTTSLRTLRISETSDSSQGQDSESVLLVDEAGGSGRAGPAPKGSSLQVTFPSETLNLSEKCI
# Sequence of CYP2D6 (P10635 whole entry): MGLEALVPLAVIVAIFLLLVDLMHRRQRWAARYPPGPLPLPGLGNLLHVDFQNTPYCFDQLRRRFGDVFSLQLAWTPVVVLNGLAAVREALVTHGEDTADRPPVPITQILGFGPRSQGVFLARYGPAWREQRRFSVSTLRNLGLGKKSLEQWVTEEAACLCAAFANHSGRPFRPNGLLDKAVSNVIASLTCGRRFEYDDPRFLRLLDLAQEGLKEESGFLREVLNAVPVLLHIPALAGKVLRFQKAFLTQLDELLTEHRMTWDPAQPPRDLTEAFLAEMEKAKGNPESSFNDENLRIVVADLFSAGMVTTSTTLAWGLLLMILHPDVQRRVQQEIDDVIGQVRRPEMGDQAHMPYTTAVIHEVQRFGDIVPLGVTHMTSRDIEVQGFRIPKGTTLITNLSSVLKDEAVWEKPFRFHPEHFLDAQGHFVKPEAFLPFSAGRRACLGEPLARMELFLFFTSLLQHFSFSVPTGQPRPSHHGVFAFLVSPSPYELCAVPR
# Sequence of CYP2C9 (P11712 whole entry): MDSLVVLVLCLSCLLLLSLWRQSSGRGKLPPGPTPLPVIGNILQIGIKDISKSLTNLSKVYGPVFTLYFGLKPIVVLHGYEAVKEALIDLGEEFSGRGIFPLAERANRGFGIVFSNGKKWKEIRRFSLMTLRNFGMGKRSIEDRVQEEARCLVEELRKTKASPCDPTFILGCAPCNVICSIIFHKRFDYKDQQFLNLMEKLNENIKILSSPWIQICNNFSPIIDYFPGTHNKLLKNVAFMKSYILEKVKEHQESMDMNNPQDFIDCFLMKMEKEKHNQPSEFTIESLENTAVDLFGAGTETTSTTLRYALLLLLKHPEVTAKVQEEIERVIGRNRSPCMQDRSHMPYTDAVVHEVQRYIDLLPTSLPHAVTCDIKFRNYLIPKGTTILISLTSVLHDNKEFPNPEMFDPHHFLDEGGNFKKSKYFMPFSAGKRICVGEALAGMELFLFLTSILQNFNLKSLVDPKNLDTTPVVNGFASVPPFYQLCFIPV
compound,measurement,setting,value
C[C@H](NC(=O)c1c(-c2ccsc2)nnn1Cc1ccc(C(F)(F)F)cc1)c1ccc(C(=O)O)cc1,"inhibition at 1 h, 20 µM",[1],63%
same,half-life at 24 h,[2],3.3 h
same,"inhibition at 0.5 h, 20 µM",[3],21%
same,bioavailability at 24 h,[4],40.9%
same,Cmax at 24 h,[5],365 ng/mL
same,"half-life at 1 h, 10 µM",[6],> 2.42 h
same,AUC(0-inf) at 24 h,[7],654 ng·h/mL
same,Cmax at 24 h,[8],808 ng/mL
same,"remaining at 1 h, 10 µM",[9],75.5%
same,IC50,[10],> 10000 nM
same,clearance at 24 h,[11],50 mL/min/kg
same,IC50,[12],> 10000 nM
same,inhibition (INH),[13],Not Active
same,Vd at 24 h,[14],4 L/kg
same,"inhibition at 1 h, 20 µM",[15],48%
same,IC50,[16],27.5 nM
same,"microsomal CLint at 1 h, 10 µM",[17],< 9.6 µL/min/mg
same,AUC(0-inf) at 24 h,[18],332 ng·h/mL
same,IC50,[19],12.9 nM
same,half-life at 24 h,[20],4.6 h
same,"inhibition at 1 h, 20 µM",[21],25%
same,"inhibition at 1 h, 20 µM",[22],28%
same,IC50,[23],> 10000 nM
same,Vd at 24 h,[24],14.5 L/kg
same,"microsomal CLint at 1 h, 10 µM",[25],< 9.6 µL/min/mg
same,"half-life at 1 h, 10 µM",[26],> 2.42 h
same,"remaining at 1 h, 10 µM",[27],106%
